Assay results from US20230213511A1, “METHOD FOR EVALUATING ALLERGEN INACTIVATORS AND KIT FOR EVALUATING ALLERGEN INACTIVATORS” (SCHOOL CORPORATION, AZABU VETERINARY MEDICINE EDUCATIONAL …, priority 2020, published 2023).

Legend:
[1] = biological target: T1, purified mite allergens "Der f1" (Dermatophagoides farinae, UniProt P16311); test: Immunostaining of purified mite allergens supported on a PVDF membrane after treatment using the test drug; assay type: biochemical; details: two hours at normal temperature, vs PBS (−); for capacity for recognition by the specific antibodies (anti-Der f1 monoclonal antibodies), immunostaining: 5 ppm Bi-jia water, 5 ppm sodium hypochlorite, 6M guanidine; for properties enabling recognition by the specific antibodies (anti-Der f1 monoclonal antibodies), immunostaining: test example 3, 30 v/v % hydrogen peroxide water, 10 mM hydrochloric acid (pH 2)
T1 construct: purchased ITEA Inc
T1 sequence (P16311 99-321): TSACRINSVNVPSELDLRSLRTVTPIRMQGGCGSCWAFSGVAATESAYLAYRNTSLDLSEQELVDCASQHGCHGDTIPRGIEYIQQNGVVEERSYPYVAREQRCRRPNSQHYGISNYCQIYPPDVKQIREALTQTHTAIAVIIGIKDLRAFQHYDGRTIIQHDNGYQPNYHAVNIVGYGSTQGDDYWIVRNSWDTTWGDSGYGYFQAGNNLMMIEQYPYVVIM
Description: (3-1. PVDF membrane) • A PVDF membrane (pore diameter: 0.45 μm) was immersed in methanol to be made hydrophilic, after which a prescribed quantity of allergens was blotted onto the PVDF membrane in a dot formation (0-100 ng/dot).
(4. Treatment using test drug) • The allergen-supporting membrane was washed three times using PBS (−). • The membrane was placed in a plastic container and immersed in 5 mL of a solution containing the test drug. • The membrane was allowed to stand for two hours at normal temperature. • The solution of the test drug was discarded, and the membrane was washed three times using PBS (−). • Protein staining or immunostaining was carried out.
(6. Immunostaining) • The allergen-supporting membrane (after “4. Treatment using test drug” described above) was immersed in 1 w/v % gelatin-containing PBS and was blocked for ten minutes at 37° C. • The blocking liquid was discarded, and the membrane was washed three times using PBS (−). • Primary antibodies were diluted using 1 w/v % BSA-containing PBST (0.02 v/v % Tween-20) so as to reach a concentration of 1 μg/mL, 2 mL of the primary antibodies was added to the blocked membrane, and a reaction was carried out for 30 minutes at normal temperature while the membrane was shaken. • A primary antibody reaction solution was discarded, and the membrane was washed three times using PBST. • HRP-labeled secondary antibodies (product name “HRP-Goat anti-Mouse IgG,” made by Zymed Laboratories) were diluted using 1 w/v % BSA-containing PBST (0.02 v/v % Tween-20) so as to reach a concentration of 3 μg/mL, 2 mL of the secondary antibodies was added to the membrane reacted with the primary antibodies, and a reaction was carried out for 30 minutes at normal temperature while the membrane was shaken. • A secondary antibody reaction solution was discarded, and the membrane was washed four times using PBST. • An amount of 1 mL of a coloring reagent solution (product name “Ez West Blue,” made by ATTO Co., Ltd.) was added to the membrane reacted with the secondary antibodies, and a reaction was carried out for ten minutes. • The membrane was washed using a large amount of distilled water, and the reaction was stopped. • The membrane was allowed to spontaneously dry.
(§1) Specifically, purified mite allergens were dot-blotted in an amount of 0, 12.5, 25, 50, or 100 ng onto a single PVDF membrane cut into a rectangular strip to produce an allergen-supporting membrane. Two identical allergen-supporting membranes were provided in this manner. First, the two allergen-supporting membranes were treated using the same test drug, a washing treatment using PBS was furthermore carried out, and then one of the treated membranes was supplied for protein staining using the gold stain and the other of the treated membranes was supplied for immunostaining using the anti-Der f1 monoclonal antibodies.
as §1, with “4, 20,” for “12.5, 25, 50,”, “antibodies. […]” for “antibodies.”

[2] = biological target: T2, purified Japanese cedar pollen allergens "Cry j1" (Cryptomeria japonica, UniProt P18632); test: Immunostaining of Cry j1 on multiscreen filter plate with PVDF filter membrane after treatment using the test drug; assay type: biochemical; details: test example 9, two hours at normal temperature, 0.1% SDS, 6M guanidine, other drugs of FIG. 16, vs PBS
T2 construct: purchased ITEA Inc
T2 sequence (P18632 22-374): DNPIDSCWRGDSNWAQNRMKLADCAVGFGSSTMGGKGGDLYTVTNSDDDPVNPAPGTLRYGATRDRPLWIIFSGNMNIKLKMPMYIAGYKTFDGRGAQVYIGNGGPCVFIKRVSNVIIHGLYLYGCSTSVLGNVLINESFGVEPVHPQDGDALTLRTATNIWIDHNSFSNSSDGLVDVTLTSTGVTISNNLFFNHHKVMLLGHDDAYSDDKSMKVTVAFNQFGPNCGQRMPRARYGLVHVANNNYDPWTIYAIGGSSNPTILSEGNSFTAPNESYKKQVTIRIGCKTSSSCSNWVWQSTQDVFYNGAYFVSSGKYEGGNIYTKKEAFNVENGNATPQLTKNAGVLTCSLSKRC
From the text: […]

[3] = biological target: T2, purified Japanese cedar pollen allergens "Cry j1"; test: Immunostaining of Cry j1 on multiscreen filter plate with cellulose mixed ester filter membrane after treatment using the test drug; assay type: biochemical; details: test example 8, two hours at normal temperature, 5 ppm NaClO (Bi-jia water), 6M guanidine, other drugs of FIG. 15, vs PBS
Description: A test for evaluating allergen inactivators was conducted using, as an allergen support, a multiscreen filter plate (MultiScreen HTS HA sterile plate, Millipore, #MSHAS4510) provided with a filter membrane composed of a cellulose mixed ester (substance similar to nitrocellulose) in each well. Specifically, as per the main points of the operational procedure for the test shown in FIG. 6, a test was conducted in accordance with the following protocol.
(1. Formulation of Allergen-Supporting Membrane and Treatment Carried Out Using Test Drug) • An amount of 2 μL of purified Japanese cedar pollen allergens (product name “Cry j1”) (made by ITEA Inc.) (origin: Japanese cedar (Cryptomeria japonica)) in each stage of dilution (50, 10, 2, or 0 ng/μL) was added dropwise into each well of the multiscreen filter plate and was allowed to spontaneously dry. • Filtration washing was carried out three times using 200 μL of PBS. • An amount of 200 μL of the drugs being examined (the various drugs being examined, and concentrations thereof, shown in FIG. 15; PBS as a control) was added, and the multiscreen filter plate was allowed to stand for two hours at normal temperature. • The drugs being examined were removed through pipetting. • Filtration washing was carried out three times using 200 μL of PBS. • To immunostaining or gold staining […]

[4] = system: extract from the grass Phleum pratense, the weed Plantago lanceolata, or house dust containing Dermatophagoides pteronyssinus; details: extract treated using a 1% aqueous solution of tannic acid; cited from earlier work
[5] = test example 2, PVDF membrane, 0, 4, 20, 100 ng/dot, 0.1 w/v % SDS
[6] = PVDF membrane, 0, 4, 20, 100 ng/dot

Row | SMILES | capacity for recognition by the specific antibodies (anti-Der f1 monoclonal antibodies), immunostaining [1, 5] | capacity for recognition by the specific antibodies (anti-Cry j1 monoclonal antibodies), immunostaining [2] | properties enabling recognition by the specific antibodies (anti-Der f1 monoclonal antibodies), immunostaining [1, 6] | further results
1 | CCCCCCCCCCCCOS(=O)(=O)[O-].[Na+] [SDS] | notably weakened | notably weakened | – | –
2 | N=C(N)N [guanidine] | – | notably weakened | – | capacity for recognition by the specific antibodies (anti-Cry j1 monoclonal antibodies), immunostaining [3]: notably weakened
3 | Cl [hydrochloric acid] | – | – | weakened | –
4 | OO [hydrogen peroxide water, hydrogen peroxide] | – | – | weakened | –
5 | OCl [sodium hypochlorite] | notably weakened | – | – | capacity for recognition by the specific antibodies (anti-Der f1 monoclonal antibodies), immunostaining ([1]; test example 1, PVDF membrane, 0-100 ng/dot): notably weakened
6 | O=C(OC[C@H]1O[C@@H](OC(=O)c2cc(O)c(O)c(OC(=O)c3cc(O)c(O)c(O)c3)c2)[C@H](OC(=O)c2cc(O)c(O)c(OC(=O)c3cc(O)c(O)c(O)c3)c2)[C@@H](OC(=O)c2cc(O)c(O)c(OC(=O)c3cc(O)c(O)c(O)c3)c2)[C@@H]1OC(=O)c1cc(O)c(O)c(OC(=O)c2cc(O)c(O)c(O)c2)c1)c1cc(O)c(O)c(OC(=O)c2cc(O)c(O)c(O)c2)c1 [tannic acid] | – | – | – | allergenicity in a cutaneous reaction test [4]: allergenicity can be mitigated
